Measured values: patent publication US4564621A, “α-Aryl-α-pyridylalkanoic acid derivatives, process for preparation thereof and pharmaceutical composition comprising the same” (Fujisawa Pharmaceutical Co., Ltd., priority 1982, dated 1986)
Like-named read-outs stand apart in the source and are kept apart here.

Key:
[1] = system: stress ulcer; assay: Test B: Inhibition on stress ulcer; assay type: in vivo, male Sprague-Dawley rats; conditions: for ED50: Rattus norvegicus, read-out: ED50 (Test B, stress ulcer)
Procedure: Inhibition on stress ulcer
Five male Sprague-Dawley rats, aged 7 weeks and weighing about 200 g were used per group for the study on stress ulcer after the fast for 24 hours. Each animal was immobilized in a restrain cage and immersed to a level of the xiphoid in a water bath kept 22° C. The test compound suspended in 0.1% methylcellulose solution was administered orally (5 ml/kg) just before the immobilization. Seven hours later, the animals were sacrificed and their stomachs were removed. The stomach was then fixed with 2% formalin. The area of ulcers was measured for each animal. The mean area (mm^2) in the test animals was compared with that in the control animals.

[2] = system: ethanol ulcer; assay: Test C: Inhibition on ethanol ulcer; assay type: in vivo, male Sprague-Dawley rats; conditions: Rattus norvegicus, 0.5 h; oral; rats; absolute ethanol 5 ml/kg 30 minutes after dosing
Procedure: Inhibition on ethanol ulcer
Five male Sprague-Dawley rats, aged 7 weeks and weighing about 200 g, were used per group for the study on ethanol ulcer after the fast for 24 hours.
Test compound was suspended in 0.1% methylcellulose aqueous solution, and the suspension (5 ml/kg) was orally given to each rat.
The control group was given a vehicle, i.e. 0.1% methylcellulose aqueous solution (5 ml/kg), alone in the same way.
Absolute ethanol (5 ml/kg) was orally administered 30 minutes after dosing with test compound, and one hour later, the rats were sacrificed and their stomachs were removed. The area of ulcers of each rat was measured. The mean area (mm^2) in the medicated group was compared with that in the control group.

[3] = system: gastric secretion; assay: Test A: Gastric secretion in Heidenhain pouch dogs (tetragastrin-stimulated total acid output); assay type: in vivo, Beagle dogs; conditions: Canis lupus familiaris, intravenous, tetragastrin 10 μg/kg/hr
Procedure: Gastric secretion in Heidenhain pouch dogs
Beagle dogs, weighing about 8-13 kg, were used for the study on gastric secretion. The animals were surgically provided with a vagally denervated Heidenhain pouch. One month or more later, the dogs were fasted overnight. Gastric secretion was stimulated by an intravenous infusion of tetragastrin (10 μg/kg/hr). Gastric samples were collected at 15 min intervals. After its volume was almost constant, test compound suspended in 0.1% methyl cellulose solution was injected intravenously (0.2 ml/kg). Acid concentration was determined by titrating an aliquot to pH 7.0 with 0.1N sodium hydroxide solution using automatic titration (Hiranuma RAT-11 Type). Total acid output was calculated by multiplying total volume of gastric samples by acid concentration, and percentage change of total acid output was calculated by comparing with predosing value of test compound.

[4] = Blood pressure monitored in spasmolytic activity test (cannula in femoral artery); assay type: in vivo, Mongrel dogs; conditions: dogs
Procedure: (§1) Spasmolytic activity in vivo
(§2) Mongrel dogs were anesthetized with s.c. injection of morphine chloride (10 mg/kg) and urethane (1.5 g/kg). The abdomen was incised along the midline, and a ballon filled with water was introduced into the gastric antrum or jejunum. The spontaneous contraction of the gastric antrum and jejunum were continuously recorded through the balloon connected to a pressure transducer. The test drugs were given intravenously. The effect of the test drug is expressed as inhibitory percentage compared to the contractile magnitude obtained before the test drug. The blood pressure was also monitored with a pressure transducer through a cannula inserted in the femoral artery.

[5] = system: gastric antrum; assay: Spasmolytic activity in vivo: spontaneous contraction of the gastric antrum; set-up: species or system Mongrel dogs; conditions: dogs
Procedure: as §1, §2

[6] = system: jejunum; assay: Spasmolytic activity in vivo: spontaneous contraction of the jejunum; set-up: species or system Mongrel dogs; conditions: dogs
Procedure: as §1, §2

[7] = British Pat. No. 666,778; cited from earlier work
[8] = oral, rats, restraint and water immersion 22° C., 7 hours

`CN1CCN(CC(=O)N2c3ccccc3C(=O)Nc3cccnc32)CC1` [Gastrozepine] showed an ED50 [1, 8] of 36 mg/kg, an ED50 [2] of 14.4 mg/kg and an ED50 [3] of 0.03 mg/kg.
In the case of `CC(CC(C(N)=O)(c1ccccc1)c1ccccn1)N(C)C` (centres unmarked) [Example 3, 4-(N,N-dimethylamino)-2-phenyl-2-(2-pyridyl)-valeramide], the ED50 ([1]; po, 7 h) was 2.7 mg/kg, the “Blood pressure change (gastric antrum)” value ([4]; 10 μg/Kg intravenous) was -3% and the “Blood pressure change (gastric antrum)” value ([4]; 100 μg/Kg intravenous) was -4%. The “Blood pressure change (jejunum)” value ([4]; 10 μg/Kg intravenous) was -3%, the “Blood pressure change (jejunum)” value ([4]; 100 μg/Kg intravenous) was -7% and the ED50 [2] was 6.8 mg/kg. For the same compound, the “Duration (gastric antrum)” value ([5]; 10 μg/Kg intravenous) was 60 min, the “Inh. (gastric antrum)” value ([5]; 10 μg/Kg intravenous) was 52% and the “Duration (gastric antrum)” value ([5]; 100 μg/Kg intravenous) was 90 min. The “Inh. (gastric antrum)” value ([5]; 100 μg/Kg intravenous) was 95%, the “Duration (jejunum)” value ([6]; 10 μg/Kg intravenous) was 30 min and the “Inh. (jejunum)” value ([6]; 10 μg/Kg intravenous) was 70%. The “Duration (jejunum)” value ([6]; 100 μg/Kg intravenous) was greater than 60 min, the “Inh. (jejunum)” value ([6]; 100 μg/Kg intravenous) was 93% and the ED50 [3] was 0.27 mg/kg.
For `CC(C)N(CCC(C(N)=O)(c1ccccc1)c1ccccn1)C(C)C` (stereo not drawn) [Disopyramide phosphate, α-phenyl-α-(2-pyridyl)-4-(N,N-diisopropylamino)butyramide], the “ED50 (Test B, stress ulcer)” value [1, 8] was “No Effect”, the “Blood pressure change (gastric antrum)” value ([4]; 100 μg/Kg intravenous) was “+3%” and the “Blood pressure change (gastric antrum)” value ([4]; 1000 μg/Kg intravenous) was “+5%”. For the same compound, the “Blood pressure change (jejunum)” value ([4]; 100 μg/Kg intravenous) was “+1%”, the “Blood pressure change (jejunum)” value ([4]; 1000 μg/Kg intravenous) was “+14%” and the “Duration (gastric antrum)” value ([5]; 100 μg/Kg intravenous) was 10 min. For the same compound, the “Inh. (gastric antrum)” value ([5]; 100 μg/Kg intravenous) was 46%, the “Duration (gastric antrum)” value ([5]; 1000 μg/Kg intravenous) was 60 min and the “Inh. (gastric antrum)” value ([5]; 1000 μg/Kg intravenous) was 88%. The “Duration (jejunum)” value ([6]; 100 μg/Kg intravenous) was 0 min, the “Inh. (jejunum)” value ([6]; 100 μg/Kg intravenous) was 4% and the “Duration (jejunum)” value ([6]; 1000 μg/Kg intravenous) was greater than 60 min. The “Inh. (jejunum)” value ([6]; 1000 μg/Kg intravenous) was 85%.
For `CC(CN(C)C)C(C#N)(c1ccccc1)c1ccccn1` (stereo not drawn) [α-phenyl-α-(2-pyridyl)-4-(N,N-dimethylamino)-3-methylbutyronitrile], the antihistaminic activity [7] is given as “possesses antihistaminic activity”.
With `COC1CC(=C(c2cccs2)c2cccs2)C[N+](C)(C)C1` (centres unmarked) [Timepidium Bromide] the “Blood pressure change (gastric antrum)” value ([4]; 10 μg/Kg intravenous) was “+4%”, the “Blood pressure change (gastric antrum)” value ([4]; 100 μg/Kg intravenous) was -19% and the “Blood pressure change (jejunum)” value ([4]; 10 μg/Kg intravenous) was -3%. The “Blood pressure change (jejunum)” value ([4]; 100 μg/Kg intravenous) was -24%, the “Duration (gastric antrum)” value ([5]; 10 μg/Kg intravenous) was 10 min and the “Inh. (gastric antrum)” value ([5]; 10 μg/Kg intravenous) was 55%. For the same compound, the “Duration (gastric antrum)” value ([5]; 100 μg/Kg intravenous) was 30 min, the “Inh. (gastric antrum)” value ([5]; 100 μg/Kg intravenous) was 92% and the “Duration (jejunum)” value ([6]; 10 μg/Kg intravenous) was 30 min. For the same compound, the “Inh. (jejunum)” value ([6]; 10 μg/Kg intravenous) was 59%, the “Duration (jejunum)” value ([6]; 100 μg/Kg intravenous) was greater than 60 min and the “Inh. (jejunum)” value ([6]; 100 μg/Kg intravenous) was 91%.
